Calls of active or inactive are those of the source. The rule behind the calls is not given here.
Key:
NCI-H23 [1] = assay: Growth inhibition of human NCI-H23 cells at 0.1 uM after 48 hrs by SRB assay; values are per cent of control; details: NCI-H23, 48 h
HCT-15 [2] = assay: Growth of human HCT15 cells at 0.3 uM after 48 hrs by SRB assay; details: HCT-15, 48 h
NCI-H23 [3] = assay: Growth inhibition of human NCI-H23 cells at 3 uM after 48 hrs by SRB assay; values are per cent of control; details: NCI-H23, 48 h
PC-3 [4] = assay: Growth inhibition of human PC3 cells at 0.3 uM after 48 hrs by SRB assay; values are per cent of control; details: PC-3, 48 h
NCI-H23 [5] = assay: Growth of human NCI-H23 cells at 0.3 uM after 48 hrs by SRB assay; details: NCI-H23, 48 h
PC-3 [6] = assay: Growth inhibition of human PC3 cells at 0.1 uM after 48 hrs by SRB assay; values are per cent of control; details: PC-3, 48 h
NUGC-3 [7] = assay: Growth inhibition of human NUGC3 cells at 3 uM after 48 hrs by SRB assay; values are per cent of control; details: NUGC-3, 48 h
NUGC-3 [8] = assay: Growth inhibition of human NUGC3 cells at 10 uM after 48 hrs by SRB assay; values are per cent of control; details: NUGC-3, 48 h
ACHN [9] = assay: Growth of human ACHN cells at 0.3 uM after 48 hrs by SRB assay
HCT-15 [10] = assay: Growth inhibition of human HCT15 cells at 0.1 uM after 48 hrs by SRB assay; values are per cent of control; details: HCT-15, 48 h
NCI-H23 [11] = assay: Growth inhibition of human NCI-H23 cells at 1 uM after 48 hrs by SRB assay; values are per cent of control; details: NCI-H23, 48 h
HCT-15 [12] = assay: Growth inhibition of human HCT15 cells after 48 hrs by SRB assay; type: functional; details: HCT-15, 48 h
ACHN [13] = assay: Growth inhibition of human ACHN cells at 3 uM after 48 hrs by SRB assay; values are per cent of control
MDA-MB-231 [14] = assay: Growth inhibition of human MDA-MB-231 cells at 0.3 uM after 48 hrs by SRB assay; values are per cent of control; details: MDA-MB-231, 48 h
HCT-15 [15] = assay: Growth inhibition of human HCT15 cells at 10 uM after 48 hrs by SRB assay; values are per cent of control; details: HCT-15, 48 h
ACHN [16] = assay: Growth of human ACHN cells at 0.1 uM after 48 hrs by SRB assay
PC-3 [17] = assay: Growth inhibition of human PC3 cells at 1 uM after 48 hrs by SRB assay; values are per cent of control; details: PC-3, 48 h
HCT-15 [18] = assay: Growth of human HCT15 cells at 3 uM after 48 hrs by SRB assay; details: HCT-15, 48 h
MDA-MB-231 [19] = assay: Growth of human MDA-MB-231 cells at 3 uM after 48 hrs by SRB assay; values are per cent of control; details: MDA-MB-231, 48 h
ACHN [20] = assay: Growth of human ACHN cells at 10 uM after 48 hrs by SRB assay
NUGC-3 [21] = assay: Growth inhibition of human NUGC3 cells after 48 hrs by SRB assay; type: functional; details: NUGC-3, 48 h
NUGC-3 [22] = assay: Growth of human NUGC3 cells at 1 uM after 48 hrs by SRB assay; details: NUGC-3, 48 h
HCT-15 [23] = assay: Growth inhibition of human HCT15 cells at 1 uM after 48 hrs by SRB assay; values are per cent of control; details: HCT-15, 48 h
NCI-H23 [24] = assay: Growth of human NCI-H23 cells at 10 uM after 48 hrs by SRB assay; details: NCI-H23, 48 h
MDA-MB-231 [25] = assay: Growth of human MDA-MB-231 cells at 10 uM after 48 hrs by SRB assay; details: MDA-MB-231, 48 h
ACHN [26] = assay: Growth inhibition of human ACHN cells after 48 hrs by SRB assay; type: functional
NCI-H23 [27] = assay: Growth inhibition of human NCI-H23 cells after 48 hrs by SRB assay; type: functional; details: NCI-H23, 48 h
[28] = molecular target: Rho-related GTP-binding protein RhoB (Homo sapiens) (UniProt P62745); assay: Transactivation of RhoB (unknown origin) transfected in human HeLa cells at 5 uM measured over 10 secs by dual luciferase reporter gene assay; type: cell-based
MDA-MB-231 [29] = assay: Growth inhibition of human MDA-MB-231 cells after 48 hrs by SRB assay; type: functional; details: MDA-MB-231, 48 h
NUGC-3 [30] = assay: Growth of human NUGC3 cells at 0.1 uM after 48 hrs by SRB assay; details: NUGC-3, 48 h
MDA-MB-231 [31] = assay: Growth of human MDA-MB-231 cells at 0.1 uM after 48 hrs by SRB assay; details: MDA-MB-231, 48 h
PC-3 [32] = assay: Growth of human PC3 cells at 10 uM after 48 hrs by SRB assay; details: PC-3, 48 h
NUGC-3 [33] = assay: Growth of human NUGC3 cells at 0.3 uM after 48 hrs by SRB assay; details: NUGC-3, 48 h
MDA-MB-231 [34] = assay: Growth of human MDA-MB-231 cells at 1 uM after 48 hrs by SRB assay; details: MDA-MB-231, 48 h
PC-3 [35] = assay: Growth inhibition of human PC3 cells after 48 hrs by SRB assay; type: functional; details: PC-3, 48 h
PC-3 [36] = assay: Growth inhibition of human PC3 cells at 3 uM after 48 hrs by SRB assay; values are per cent of control; details: PC-3, 48 h
ACHN [37] = assay: Growth inhibition of human ACHN cells at 1 uM after 48 hrs by SRB assay; values are per cent of control

Rho-related GTP-binding protein RhoB (Homo sapiens), sequence (P62745 whole entry): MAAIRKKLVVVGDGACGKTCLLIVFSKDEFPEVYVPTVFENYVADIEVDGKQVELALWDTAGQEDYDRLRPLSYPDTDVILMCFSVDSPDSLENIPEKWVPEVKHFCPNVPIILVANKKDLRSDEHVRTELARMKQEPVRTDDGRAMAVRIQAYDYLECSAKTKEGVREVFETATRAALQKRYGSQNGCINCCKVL

SMILES | growth, % of control at 0.1 µM (NCI-H23 [1]) | growth, % of control at 0.3 µM (HCT-15 [2]) | growth, % of control at 3 µM (NCI-H23 [3]) | growth, % of control at 0.3 µM (PC-3 [4]) | growth, % of control at 0.3 µM (NCI-H23 [5]) | growth, % of control at 0.1 µM (PC-3 [6]) | growth, % of control at 3 µM (NUGC-3 [7]) | growth, % of control at 10 µM (NUGC-3 [8]) | growth, % of control at 0.3 µM (ACHN [9]) | growth, % of control at 0.1 µM (HCT-15 [10]) | growth, % of control at 1 µM (NCI-H23 [11]) | GI50 (HCT-15 [12]) | growth, % of control at 3 µM (ACHN [13]) | growth, % of control at 0.3 µM (MDA-MB-231 [14]) | growth, % of control at 10 µM (HCT-15 [15]) | growth, % of control at 0.1 µM (ACHN [16]) | growth, % of control at 1 µM (PC-3 [17]) | growth, % of control at 3 µM (HCT-15 [18]) | growth, % of control at 3 µM (MDA-MB-231 [19]) | growth, % of control at 10 µM (ACHN [20]) | further results
CCCCCCCCCCCCCCCCS(=O)(=O)NCCC[N+](C)(C)CC | 81.3% | 91.7% | 32.2% | 79.7% | 82.9% | 84.1% | 7.5% | -34.3% | 90.6% | 90% | 73.4% | 1200 nM | 48.4% | 75.7% | 16.3% | 87.7% | 56.3% | 35.3% | 39.3% | -6.7% | GI50 (NUGC-3 [21]): 320 nM; growth, % of control at 1 µM (NUGC-3 [22]): 41.8%; growth, % of control at 1 µM (HCT-15 [23]): 78%; growth, % of control at 10 µM (NCI-H23 [24]): -21.5%; growth, % of control at 10 µM (MDA-MB-231 [25]): 9.2%; GI50 (ACHN [26]): 1290 nM; GI50 (NCI-H23 [27]): 910 nM; Activity [28]: Active; GI50 (MDA-MB-231 [29]): 910 nM; growth, % of control at 0.1 µM (NUGC-3 [30]): 74.4%; growth, % of control at 0.1 µM (MDA-MB-231 [31]): 72.6%; growth, % of control at 10 µM (PC-3 [32]): -32.4%; growth, % of control at 0.3 µM (NUGC-3 [33]): 73.5%; growth, % of control at 1 µM (MDA-MB-231 [34]): 75.5%; GI50 (PC-3 [35]): 560 nM; growth, % of control at 3 µM (PC-3 [36]): -11.8%; growth, % of control at 1 µM (ACHN [37]): 76.6%
CCCCCCCCCCCCCCCCS(=O)(=O)N(C)CC[N+](C)(C)CC | 80.8% | 98.4% | 61.6% | 87.3% | 78.3% | 91.4% | 17.2% | 4% | 93.9% | 101% | 84% | 1260 nM | 52.7% | 77.8% | 26.7% | 96.2% | 54.1% | 35.2% | 36.5% | 21.5% | GI50 (NUGC-3 [21]): 360 nM; growth, % of control at 1 µM (NUGC-3 [22]): 30%; growth, % of control at 1 µM (HCT-15 [23]): 69.7%; growth, % of control at 10 µM (NCI-H23 [24]): 13.5%; growth, % of control at 10 µM (MDA-MB-231 [25]): -3.8%; GI50 (ACHN [26]): 1750 nM; GI50 (NCI-H23 [27]): 1810 nM; Activity [28]: Active; GI50 (MDA-MB-231 [29]): 540 nM; growth, % of control at 0.1 µM (NUGC-3 [30]): 88%; growth, % of control at 0.1 µM (MDA-MB-231 [31]): 75.8%; growth, % of control at 10 µM (PC-3 [32]): -18.7%; growth, % of control at 0.3 µM (NUGC-3 [33]): 81.3%; growth, % of control at 1 µM (MDA-MB-231 [34]): 51.9%; GI50 (PC-3 [35]): 570 nM; growth, % of control at 3 µM (PC-3 [36]): 14.2%; growth, % of control at 1 µM (ACHN [37]): 77.8%

Reference: ChEMBL document CHEMBL2434921, “New synthetic aliphatic sulfonamido-quaternary ammonium salts as anticancer chemotherapeutic agents” (2013)
